Assay results: ChEMBL document CHEMBL3991601, “The target landscape of clinical kinase drugs” (Science, 2017)
Activity calls are given as the source filed them. On the calls: in the data inactive means no Kd found up to 30 µM.

Tests used:
[1] = biological target: Cell division cycle 7-related protein kinase (Homo sapiens, UniProt O00311)
[2] = biological target: T1, Electron transfer flavoprotein subunit beta (Homo sapiens, UniProt P38117)
T1 sequence (P38117 whole entry): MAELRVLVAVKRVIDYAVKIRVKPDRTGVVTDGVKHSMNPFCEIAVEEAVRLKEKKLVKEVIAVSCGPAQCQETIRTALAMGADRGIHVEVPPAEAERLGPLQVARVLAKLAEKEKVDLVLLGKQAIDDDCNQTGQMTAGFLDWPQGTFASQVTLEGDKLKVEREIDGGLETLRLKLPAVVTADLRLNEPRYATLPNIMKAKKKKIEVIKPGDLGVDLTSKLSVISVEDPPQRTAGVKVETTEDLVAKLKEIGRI

[3] = biological target: Serine/threonine-protein kinase 24 (Homo sapiens, UniProt Q9Y6E0)
[4] = biological target: T2, Dual specificity protein kinase TTK (Homo sapiens, UniProt P33981)
T2 sequence (P33981 whole entry): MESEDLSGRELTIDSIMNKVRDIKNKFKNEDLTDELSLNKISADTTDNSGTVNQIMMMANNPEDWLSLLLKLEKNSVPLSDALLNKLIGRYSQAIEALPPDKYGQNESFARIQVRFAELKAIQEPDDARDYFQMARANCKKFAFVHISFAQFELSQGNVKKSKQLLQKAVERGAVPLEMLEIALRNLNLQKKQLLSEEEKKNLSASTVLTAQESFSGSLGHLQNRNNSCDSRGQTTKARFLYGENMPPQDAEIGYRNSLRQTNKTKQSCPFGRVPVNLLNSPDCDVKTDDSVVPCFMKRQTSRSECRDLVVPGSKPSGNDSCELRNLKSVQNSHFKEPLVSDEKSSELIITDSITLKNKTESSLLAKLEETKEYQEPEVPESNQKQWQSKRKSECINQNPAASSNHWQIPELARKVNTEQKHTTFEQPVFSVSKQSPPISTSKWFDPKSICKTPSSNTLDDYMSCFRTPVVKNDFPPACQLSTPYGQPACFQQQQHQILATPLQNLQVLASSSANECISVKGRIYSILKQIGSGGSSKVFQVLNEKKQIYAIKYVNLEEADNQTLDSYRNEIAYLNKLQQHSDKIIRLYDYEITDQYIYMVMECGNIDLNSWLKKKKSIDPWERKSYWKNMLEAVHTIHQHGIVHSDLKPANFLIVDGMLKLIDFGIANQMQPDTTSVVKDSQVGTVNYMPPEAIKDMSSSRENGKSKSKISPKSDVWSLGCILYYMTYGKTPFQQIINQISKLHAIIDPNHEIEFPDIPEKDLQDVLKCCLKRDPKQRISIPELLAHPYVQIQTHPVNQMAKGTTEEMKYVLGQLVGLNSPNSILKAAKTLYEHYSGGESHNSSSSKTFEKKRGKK

[5] = biological target: T3, Protein kinase C zeta type (Homo sapiens, UniProt Q05513)
T3 sequence (Q05513 whole entry): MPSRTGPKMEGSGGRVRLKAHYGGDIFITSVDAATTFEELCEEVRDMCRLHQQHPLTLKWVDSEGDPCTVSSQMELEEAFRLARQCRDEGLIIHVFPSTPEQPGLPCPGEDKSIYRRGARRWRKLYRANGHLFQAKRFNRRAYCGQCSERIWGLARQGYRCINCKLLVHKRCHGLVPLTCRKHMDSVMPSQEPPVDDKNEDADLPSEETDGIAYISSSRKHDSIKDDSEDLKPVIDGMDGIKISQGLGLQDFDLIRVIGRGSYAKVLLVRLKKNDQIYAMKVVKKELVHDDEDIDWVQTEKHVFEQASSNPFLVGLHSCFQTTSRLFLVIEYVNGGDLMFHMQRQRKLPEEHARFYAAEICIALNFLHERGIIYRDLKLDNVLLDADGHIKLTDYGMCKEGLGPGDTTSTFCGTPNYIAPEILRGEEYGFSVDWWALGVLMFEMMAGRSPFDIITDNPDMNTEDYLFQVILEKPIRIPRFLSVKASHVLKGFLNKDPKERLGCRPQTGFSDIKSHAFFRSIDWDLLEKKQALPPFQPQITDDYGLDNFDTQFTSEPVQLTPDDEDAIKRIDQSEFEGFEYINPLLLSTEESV

UMP-CMP kinase = biological target: T4, UMP-CMP kinase (Homo sapiens, UniProt P30085)
T4 sequence (P30085 whole entry): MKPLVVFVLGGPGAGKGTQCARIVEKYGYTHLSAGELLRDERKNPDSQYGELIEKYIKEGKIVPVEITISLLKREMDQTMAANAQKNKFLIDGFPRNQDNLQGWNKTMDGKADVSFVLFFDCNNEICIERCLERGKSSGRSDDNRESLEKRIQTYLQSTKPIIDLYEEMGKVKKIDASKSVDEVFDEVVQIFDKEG

[6] = biological target: Serine/threonine-protein kinase pim-2 (Homo sapiens, UniProt Q9P1W9)
[7] = biological target: Serine/threonine-protein kinase PAK 6 (Homo sapiens, UniProt Q9NQU5)
Chain of Serine/threonine-protein kinase PAK 6 (Q9NQU5 whole entry): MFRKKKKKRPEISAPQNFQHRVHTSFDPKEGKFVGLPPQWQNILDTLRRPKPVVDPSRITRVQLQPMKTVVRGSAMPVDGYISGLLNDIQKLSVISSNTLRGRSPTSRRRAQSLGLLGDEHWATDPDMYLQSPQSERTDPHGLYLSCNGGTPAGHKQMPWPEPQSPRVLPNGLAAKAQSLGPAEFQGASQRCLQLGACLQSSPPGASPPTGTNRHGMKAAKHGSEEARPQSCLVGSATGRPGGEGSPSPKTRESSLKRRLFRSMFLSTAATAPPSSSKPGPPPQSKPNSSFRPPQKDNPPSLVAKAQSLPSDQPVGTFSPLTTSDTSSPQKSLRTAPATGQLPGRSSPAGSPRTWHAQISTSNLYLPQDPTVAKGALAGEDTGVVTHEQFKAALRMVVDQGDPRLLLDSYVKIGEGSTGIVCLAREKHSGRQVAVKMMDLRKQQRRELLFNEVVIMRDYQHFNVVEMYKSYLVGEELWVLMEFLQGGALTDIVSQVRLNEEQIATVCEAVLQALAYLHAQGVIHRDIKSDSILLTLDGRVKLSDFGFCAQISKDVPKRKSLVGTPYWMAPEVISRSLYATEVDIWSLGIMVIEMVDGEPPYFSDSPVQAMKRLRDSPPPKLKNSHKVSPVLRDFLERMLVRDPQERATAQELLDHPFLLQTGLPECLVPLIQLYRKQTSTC

Chain of Serine/threonine-protein kinase pim-2 (Q9P1W9 whole entry): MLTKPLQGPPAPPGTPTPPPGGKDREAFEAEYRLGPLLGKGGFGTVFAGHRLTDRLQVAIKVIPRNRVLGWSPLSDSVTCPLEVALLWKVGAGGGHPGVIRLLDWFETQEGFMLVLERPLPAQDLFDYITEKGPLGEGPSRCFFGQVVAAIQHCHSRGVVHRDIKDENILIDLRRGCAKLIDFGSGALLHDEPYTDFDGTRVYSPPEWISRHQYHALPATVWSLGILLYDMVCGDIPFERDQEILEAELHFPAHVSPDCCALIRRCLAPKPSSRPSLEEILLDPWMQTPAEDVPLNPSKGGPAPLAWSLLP
Chain of Cell division cycle 7-related protein kinase (O00311 whole entry): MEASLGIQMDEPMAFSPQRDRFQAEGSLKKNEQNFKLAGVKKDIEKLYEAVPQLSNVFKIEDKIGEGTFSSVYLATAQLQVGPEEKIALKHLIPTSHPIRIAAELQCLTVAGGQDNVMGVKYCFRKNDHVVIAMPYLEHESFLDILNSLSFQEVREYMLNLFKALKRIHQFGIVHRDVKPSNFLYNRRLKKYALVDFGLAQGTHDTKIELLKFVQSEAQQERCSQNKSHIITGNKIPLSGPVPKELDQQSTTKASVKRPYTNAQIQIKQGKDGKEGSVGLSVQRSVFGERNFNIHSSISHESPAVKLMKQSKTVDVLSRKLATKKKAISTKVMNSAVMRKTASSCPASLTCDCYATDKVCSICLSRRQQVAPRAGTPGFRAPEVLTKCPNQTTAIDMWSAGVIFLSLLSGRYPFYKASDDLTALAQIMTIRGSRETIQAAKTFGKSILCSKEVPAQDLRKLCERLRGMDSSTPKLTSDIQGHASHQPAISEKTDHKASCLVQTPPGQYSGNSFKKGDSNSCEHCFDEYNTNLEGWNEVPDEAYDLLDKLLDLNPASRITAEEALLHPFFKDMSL
Chain of Serine/threonine-protein kinase 24 (Q9Y6E0 whole entry): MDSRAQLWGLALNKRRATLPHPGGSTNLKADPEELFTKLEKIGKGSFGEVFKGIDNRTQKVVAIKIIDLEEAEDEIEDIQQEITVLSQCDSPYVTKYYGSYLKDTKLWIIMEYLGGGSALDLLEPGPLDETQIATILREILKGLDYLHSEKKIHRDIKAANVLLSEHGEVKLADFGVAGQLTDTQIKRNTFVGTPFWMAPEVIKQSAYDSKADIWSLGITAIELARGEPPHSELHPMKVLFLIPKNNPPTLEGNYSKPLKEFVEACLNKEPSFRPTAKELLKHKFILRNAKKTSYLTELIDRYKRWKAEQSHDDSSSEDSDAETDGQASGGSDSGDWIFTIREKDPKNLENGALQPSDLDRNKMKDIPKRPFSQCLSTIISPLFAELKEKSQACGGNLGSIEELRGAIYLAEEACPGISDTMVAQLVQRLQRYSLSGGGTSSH

SMILES	Kd [1]	Kd [2]	Kd [3]	Kd [4]	Kd [5]	Kd (UMP-CMP kinase)	Kd [6]	Kd [7]
COc1cc2ncnc(Oc3cccc(NC(=O)Nc4cc(C(C)(C)C(F)(F)F)on4)c3)c2cc1OC [CEP-32496]	> 30 µM (inactive)	> 30 µM (inactive)	> 30 µM (inactive)	> 30 µM (inactive)	> 30 µM (inactive)	> 30 µM (inactive)	> 30 µM (inactive)	–
CC(C)(C)c1nc(-c2cccc(NS(=O)(=O)c3c(F)cccc3F)c2F)c(-c2ccnc(N)n2)s1 [DABRAFENIB]	> 30 µM (inactive)	> 30 µM (inactive)	> 30 µM (inactive)	> 30 µM (inactive)	> 30 µM (inactive)	> 30 µM (inactive)	> 30 µM (inactive)	> 30 µM (inactive)
N#CC1(c2ccc(NC(=O)c3cccnc3NCc3ccncc3)cc2)CCCC1 [RIVOCERANIB]	> 30 µM (inactive)	> 30 µM (inactive)	> 30 µM (inactive)	> 30 µM (inactive)	> 30 µM (inactive)	> 30 µM (inactive)	–	> 30 µM (inactive)
CO[C@H]1C[C@@H]2CC[C@@H](C)[C@@](O)(O2)C(=O)C(=O)N2CCCC[C@H]2C(=O)O[C@H]([C@H](C)C[C@@H]2CC[C@@H](OC(=O)C(C)(CO)CO)[C@H](OC)C2)CC(=O)[C@H](C)/C=C(\C)[C@@H](O)[C@@H](OC)C(=O)[C@H](C)C[C@H](C)/C=C/C=C/C=C/1C [TEMSIROLIMUS]	> 30 µM (inactive)	> 30 µM (inactive)	> 30 µM (inactive)	> 30 µM (inactive)	> 30 µM (inactive)	> 30 µM (inactive)	> 30 µM (inactive)	> 30 µM (inactive)

The remaining lines, values ahead:

Kd [1]	Kd [2]	Kd [3]	Kd [4]	Kd [5]	Kd (UMP-CMP kinase)	Kd [6]	Kd [7]	SMILES
> 30 µM (inactive)	> 30 µM (inactive)	> 30 µM (inactive)	> 30 µM (inactive)	> 30 µM (inactive)	> 30 µM (inactive)	–	–	COc1ncc(-c2ccc3nccc(-c4ccnnc4)c3c2)cc1NS(=O)(=O)c1ccc(F)cc1F [OMIPALISIB]
> 30 µM (inactive)	> 30 µM (inactive)	> 30 µM (inactive)	> 30 µM (inactive)	> 30 µM (inactive)	> 30 µM (inactive)	–	–	CO[C@H]1C[C@@H]2CC[C@@H](C)[C@@](O)(O2)C(=O)C(=O)N2CCCC[C@H]2C(=O)O[C@H]([C@H](C)C[C@@H]2CC[C@@H](O)[C@H](OC)C2)CC(=O)[C@H](C)/C=C(\C)[C@@H](O)[C@@H](OC)C(=O)[C@H](C)C[C@H](C)/C=C/C=C/C=C/1C [SIROLIMUS]
